The source of these data is US12344599B2, “Prodigiosin analogs and methods of use” (Institute For Cancer Research, priority 2016, dated 2025).

Usually IC50 stands for the concentration that gives 50% inhibition. A lower IC50 goes with greater potency in that assay.

The subject of test [1] is SW480. The experiment in a line: CellTiterGlo cell viability assay, SW480. It is filed as cell-based. The note with it: Homo sapiens; SW480, colorectal cancer, p53 R273, P309S, 72 hours. The procedure: • 1) Cell lines: HT29, SW480, DLD-1, HCT116, and p53-null HCT116 cells, H1975, MDA-MD-231, U251, FaDu, CAL-27, PANC-1, Aspc-1, and MRC5 were obtained from the ATCC and cultured as recommended. Cells were regularly authenticated by bioluminescence, growth, and morphologic observation. The cells were routinely examined for Mycoplasma and all cell lines underwent STR authentication. • 2) Western blotting: After treatment, protein lysates were collected for Western blot analysis. 15 μg of protein was used for SDS-PAGE. After primary and secondary antibody incubations, the signal was detected by chemiluminescent detection kit, imaged by Syngene (Imgen Technologies). […] The cell viability was assessed by CellTiterGlo bioluminescent cell proliferation assay (Promega), following the manufacturer's protocol. Bioluminescence imaging was measured using the IVIS imager. Percentage of cell viability (mean±SEM) at each dose was calculated against the respective DMSO control. The IC50 values were determined from the sigmoidal dose-response curves using GraphPad Prims4. • 4) Caspase activity assay: Cells were seeded in 96-well plate (1×10^4 cells/well). […] The caspase 3/7 activity was assessed by Caspase-Glo® 3/7 Assay kit (Promega), following the manufacturer's protocol. Bioluminescence imaging was measured using the IVIS imager. […]
On the technique in general: ATP-based viability assays read luminescence as a measure of living cells.

Test [2] concerns PUMA and DR5 in HT29 and HCT116 p53−/− cell lines. The experiment in a line: Western blot of PUMA and DR5, comparison with regorafenib. The note with it: 4 μM, 24-hour time point. It is filed as cell-based, human. As to the method:
After treatment, protein lysates were collected for Western blot analysis. A total of […] of protein was used for SDS-PAGE. After primary and secondary antibody incubations, the signal was detected by a chemiluminescence detection kit, imaged by Syngene (Imgen Technologies). Antibodies for PUMA (for IHC), p53 (Santa Cruz Biotechnology), caspase 8, cleaved caspase 8, caspase 9, caspase 3, cleavage PARP, eIF2α, p-eIF2α (Ser51), CHOP, ATF4, DR5, FOXO3a, p-FOXO3a (Ser253), NF-κB p65, p-NF-κB p65 (Ser536), c-Jun, p-c-Jun (Ser63), JNK, p-JNK (Thr183/Tyr185), PUMA (for WB), c-Myc, phosphor-S62-cMyc (Cell Signaling Technology), Noxa, p21 (Calbiochem), p73 (Bethyl laboratories Inc), Ran (BD Biosciences), […] (Sigma).
Regorafenib is an FDA-approved drug for treatment of metastatic colorectal cancer, advanced gastrointestinal stromal tumors and hepatocellular carcinoma. Regorafenib inhibits ERK and leads to the induction of PUMA through the GSK3β/NF-κB axis and induces PUMA-mediated apoptosis in colon cancer cell lines (Chen et al., Clin Cancer Res, 2014, 20, 3472-3484). PG3-Oc was compared with regorafenib in the induction of PUMA and DR5. Regorafenib (40 μM and 24 hours treatment) was used as a control, as previously reported (Chen et al., Clin Cancer Res, 2014, 20, 3472-3484).
For orientation: Immunoblotting shows a protein as a band on a membrane.

The test system of test [3] is CCD 841 Con. In words: CellTiterGlo cell viability assay, CCD 841 Con normal colon cells. It is filed as cell-based. To be noted: Homo sapiens, non-transformed colorectal epithelial cells, p53 WT, 72 hours. As to the method: Cells were seeded in 96-well plates (6×10^3 cells/well). Cells were treated with different concentrations of compounds or dimethyl sulfoxide (DMSO) as a control for 72 hours. The cell viability was assessed by CellTiterGlo bioluminescent cell proliferation assay (Promega), following the manufacturer's protocol. Bioluminescence imaging was measured using the IVIS imager. Percentage of cell viability (mean±SEM) at each dose was calculated against the respective DMSO control. The IC50 values were determined from the sigmoidal dose-response curves using GraphPad Prism.

For the compound `CCCCCCCCOC(=O)CCc1c(C)[nH]c(/C=C2\N=C(c3ccc[nH]3)C=C2OC)c1C` [PG3-Oc, Octyl (Z)-3-(5-((4′-methoxy-1H,5′H-[2,2′-bipyrrol]-5′-ylidene)methyl)-2,4-dimethyl-1H-pyrrol-3-yl)propanoate], the concentration for half-maximal inhibition (IC50) in test [1] is 95.3 nM; in test [3] it was 375 nM. The “level of PUMA and DR5 induced compared to 40 μM regorafenib” value in test [2] was “much higher level of PUMA and DR5”.
